# Experiments:
# Format in all cases: in vivo, human
# ICAM-1 = test: MARINE study (fasting TG ≧500 mg/dL), ICAM-1; details: MARINE ITT, week 12
# Source text: (§1) Parameters (a)-(y) can be measured in accordance with any clinically acceptable methodology. For example, triglycerides, total cholesterol, HDL-C and fasting blood sugar can be sample from serum and analyzed using standard photometry techniques. VLDL-TG, LDL-C and VLDL-C can be calculated or determined using serum lipoprotein fractionation by preparative ultracentrifugation and subsequent quantitative analysis by refractometry or by analytic ultracentrifugal methodology. Apo A1, Apo B and hsCRP can be determined from serum using standard nephelometry techniques. Lipoprotein (a) can be determined from serum using standard turbidimetric immunoassay techniques. LDL particle number and particle size can be determined using nuclear magnetic resonance (NMR) spectrometry. Remnants lipoproteins and LDL-phospholipase A2 can be determined from EDTA plasma or serum and serum, respectively, using enzymatic immunoseparation techniques. Oxidized LDL, intercellular adhesion molecule-1 and interleukin-2 levels can be determined from serum using standard enzyme immunoassay techniques. These techniques are described in detail in standard textbooks, for example Tietz Fundamentals of Clinical Chemistry, 6th Ed. (Burtis, Ashwood and Borter Eds.), WB Saunders Company. […]
# Lp-PLA2 = test: ANCHOR study, Lp-PLA2; details: ANCHOR ITT, week 12
# Source text: Parameters (a)-(y) can be measured in accordance with any clinically acceptable methodology. For example, triglycerides, total cholesterol, HDL-C and fasting blood sugar can be sample from serum and analyzed using standard photometry techniques. VLDL-TG, LDL-C and VLDL-C can be calculated or determined using serum lipoprotein fractionation by preparative ultracentrifugation and subsequent quantitative analysis by refractometry or by analytic ultracentrifugal methodology. Apo A1, Apo B and hsCRP can be determined from serum using standard nephelometry techniques. Lipoprotein (a) can be determined from serum using standard turbidimetric immunoassay techniques. LDL particle number and particle size can be determined using nuclear magnetic resonance (NMR) spectrometry. Remnants lipoproteins and LDL-phospholipase A2 can be determined from EDTA plasma or serum and serum, respectively, using enzymatic immunoseparation techniques. Oxidized LDL, intercellular adhesion molecule-1 and interleukin-2 levels can be determined from serum using standard enzyme immunoassay techniques. These techniques are described in detail in standard textbooks, for example Tietz Fundamentals of Clinical Chemistry, 6th Ed. (Burtis, Ashwood and Borter Eds.), WB Saunders Company.
# A multi-center, placebo-controlled, randomized, double-blind, 12-week study was performed to evaluate the efficacy and safety of >96% E-EPA in patients with fasting triglyceride levels ≧200 mg/dl and <500 mg/dl despite statin therapy (the mean of two qualifying entry values needed to be ≧185 mg/dl and at least one of the values needs to be ≧200 mg/dl). The primary objective of the study was to determine the efficacy of >96% E-EPA 2 g daily and 4 g daily, compared to placebo, in lowering fasting TG levels in patients with high risk for cardiovascular disease and with fasting TG levels ≧200 mg/dL and <500 mg/dL, despite treatment to LDL-C goal on statin therapy. […]
# [1] = Safety and tolerability (adverse events), AAMI pilot study (Example 1); details: for TEAE Probably Related to the study drug: one subject
# Description: All randomized subjects that received at least 1 dose of study medication were included in the Safety Population.
# Safety evaluations were based on the safety population. Safety and tolerability were assessed in terms of AEs, vital signs, 12-lead ECG, clinical laboratory data, medical history, and study drug compliance. Safety and tolerability data were presented by treatment group.
# Ox-LDL = test: ANCHOR study, oxidized LDL; details: ANCHOR ITT, week 12
# Source text: as §1
smiles,measurement,setting,value
"CC/C=C\C/C=C\C/C=C\C/C=C\C/C=C\CCCC(=O)OCC [AMR101, all-cis eicosa-5,8,11,14,17-pentaenoic acid ethyl ester]",ICAM-1 change from baseline (median),ICAM-1; 2 g/day,−0.4%
same,ICAM-1 change from baseline (median),ICAM-1; 4 g/day,−0.9%
same,Lp-PLA2 change from baseline (median),Lp-PLA2; 2 g/day,−1.8%
same,Lp-PLA2 change from baseline (median),Lp-PLA2; 4 g/day,−12.8%
same,Lp-PLA2 end-of-treatment value (median),Lp-PLA2; 4 g/day,160.0 ng/mL
same,Subjects with nausea Possibly Related to the study drug,[1]; 1 g cohort,two
same,TEAE Probably Related to the study drug,[1]; 1 g,nausea
same,Subjects with nausea Possibly Related to the study drug,[1]; 2 g cohort,one
same,SAE reported,[1]; 2 g treatment group,One
same,Subjects discontinued due to TEAEs,[1]; 2 g treatment group,2 subjects
same,Subjects with nausea Possibly Related to the study drug,[1]; 4 g cohort,two
same,TEAE Probably Related to the study drug,[1]; 4 g,diarrhea
same,Deaths during the study,[1]; all groups,no deaths
same,TEAEs Definitely Related to the study drug,[1]; all groups,No TEAEs were Definitely Related
same,Treatment emergent AEs (TEAEs) reported,"[1]; ethyl-EPA treatment groups (1, 2, 4 g), 6 weeks, placebo groups 34 events",105 events
same,Relatedness of the SAE (worsening epigastric chest pain),[1]; one subject receiving 2 g,unrelated to the study drug
same,Severity and relatedness of most TEAEs,[1]; whole study,mild in severity and unrelated to study drug
same,Ox-LDL change from baseline (median),Ox-LDL; 2 g/day,2.6%
same,Ox-LDL change from baseline (median),Ox-LDL; 4 g/day,−4.8%

# Source: patent US9827219B2, “Compositions and methods for lowering levels of high-sensitivity C-reactive protein (HS-CRP) in a subject” (priority 2012, dated 2017)
